Test results taken from US5317022A, “Pharmaceutical composition and use” (priority 1991, dated 1994).
Where a name gives a salt, the structure may show the parent alone. Read-outs that look alike come from different tables or passages of the source.

What was measured:
[1] = target: (^3 H)naloxone binding sites; experiment: competition binding assay with (3H)naloxone on rat brain membranes; details: membranes incubated with (3H)naloxone 1 nM and increasing ligand concentrations; read-out: Affinity constants (Ki nM) in competition assays
Description: (§1) Membrane preparation: A crude membrane fraction from rat brain (PVG/C strain) was prepared [Mol. Pharm.11 (1975) 340-351 and the protein content was defined [Anal. Biochem. 72(1976) 248-254).
(§2) The membrane suspension (200-400 μg protein) was incubated with the specific radioligand for 1 hour on ice. Incubations were terminated by rapid filtration under vacuo followed by washing with ice cold tris HCl buffer (50 mM, pH 7,4). Radioactivity was measured in a toluene based scintillation mixture on a LKB Minibeta Liquid Scintillation Spectrophotometer. Nonspecific binding was defined in the presence of 10 μM unlabeled naloxone. All assays were performed in triplicate and repeated several times. Ki values were determined from equilibrium experiments and calculated with the Tshang-Prusov equation. The data were evaluated using the Ligand program [Anal. Biol. Chem. 107 (1980) 220-239](Data shown on Table III/1).

[2] = system: rat; experiment: analgetic effect, tail flick (rat); type: in vivo
[3] = system: rats; experiment: sedative (narcosis potentiating) effect, Inactine base narcotic, rats; type: in vivo
Description: Inactine (35 mg/kg) was used as a base narcotic.
*ED500 % = dose increasing narcosis to five times the control.

[4] = system: rat; experiment: animal or person; details: read-out: algolyt. test (rat) 100% activity
[5] = system: rat; experiment: analgetic effect, hot plate (rat); type: in vivo
[6] = system: mice; experiment: analgetic effect, writhing test (mice); type: in vivo
[7] = system: rabbits; experiment: effects on respiration on conscious rabbits (III.5, Marey-drum)
Description: Investigation was carried out on conscious rabbits of both sexes and of 3-4 kg weight by way of a Marey-drum. Frequency and amplitude of respiration were quantitatively evaluated.

[8] = target: (^3 H)naloxone binding sites; experiment: wash-resistant binding of (3H)naloxone, rat brain membranes; details: preincubated with (3H)naloxone 1 nM and test compound; remaining specific binding after several washings; average of 2-4 data; compound.HCl; read-out: Ki (nM), affinity constants
Description: as §1, §2
After preincubation a thorough washing was performed. [Life Sci. 32 (1983) 2777-2784]. Control values are represented by the specific binding of (3H)naloxone to membranes preincubated with a buffer and treated in the same way. Heterologous displacement experiments were used to evaluate the affinity of the investigated compounds for (^3 H)naloxone binding sites.

[9] = system: rabbits; experiment: effect on respiration on conscious rabbits (III.6, type A/B/C tests); type: in vivo; design: resp. change ampl.: unit not given here; details: for respiration number (in words): small doses
Description: The method as described above in Example III.5 was used on conscious rabbits of 2,5-3 kg weight. Registration was continued for 3-4 hours. The samples were injected under the skin of the neck and the respiration parameters were registered at intervals of 10 minutes.

[10] = Rattus norvegicus; read-out: tail flick (rat) ED50
[11] = s.c. on rats, Inactine 35 mg/kg, dose as base
[12] = Rattus norvegicus; read-out: hot plate (rat) ED50
[13] = Mus musculus; read-out: writhing test (mice) ED50
[14] = Mus musculus, read-out: writhing test (mice) ED50
[15] = Rattus norvegicus, read-out: tail flick (rat) ED50
[16] = OX 0.5 mg/kg s.c. + naloxone 0.25 mg/kg, 10 min
[17] = OX 0.5 mg/kg s.c., 10 min (line before naloxone)
[18] = type A: OX 0.1 mg/kg s.c. +5 mg/kg morphine, 30 min
[19] = type A: OX 0.1 mg/kg s.c. +5 mg/kg morphine, 40 min
[20] = type A: OX 0.1 mg/kg s.c., 10 min
[21] = Rattus norvegicus, read-out: hot plate (rat) ED50
[22] = type A: DP 0.01 mg/kg s.c., 10'
[23] = type A: DP 0.01 mg/kg s.c., 20'
[24] = type A: DP 0.025 mg/kg s.c., 10'
[25] = type A: DP 0.025 mg/kg s.c., 20'
[26] = type A: DP 0.05 mg/kg s.c., 10'
[27] = type C: DP 0.25 mg/kg together with morphine 5 mg/kg s.c., 10'
[28] = type C: DP 0.25 mg/kg together with morphine 5 mg/kg s.c., 20'
[29] = type C: DP 0.25 mg/kg together with morphine 5 mg/kg s.c., 30'
[30] = type C: DP 0.25 mg/kg together with morphine 5 mg/kg s.c., 50'
[31] = OS 0.025 mg/kg s.c. (20 min), morphine 5 mg/kg s.c., 20 min
[32] = OS 0.025 mg/kg s.c. (30 min), morphine 5 mg/kg s.c., 30 min
[33] = OS 0.025 mg/kg s.c., 10 min (before morphine)
[34] = OS 0.50 mg/kg s.c. (30 min), morphine 20 mg/kg s.c., 20 min

CN1CC[C@]23c4c5ccc(O)c4O[C@H]2C(=NNc2ccccc2)CC[C@H]3[C@H]1C5 [dihydromorphinone phenylhydrazone]
Ki [1]: 5 nM

CN1CC[C@]23c4c5ccc(O)c4O[C@H]2C(=NNC(N)=O)CC[C@@]3(O)[C@H]1C5 [oxymorphone semicarbazone]
Ki [1]: 4 nM

CN1CC[C@]23c4c5ccc(O)c4O[C@H]2C(=NO)CC[C@H]3[C@H]1C5 [dihydromorphinone oxime]
Ki [1]: 2 nM

CN1CC[C@]23c4c5ccc(O)c4O[C@H]2C(=NO)CC[C@@]3(O)[C@H]1C5 [oxymorphone oxime]
Ki [1]: 2 nM

COc1ccc2c3c1O[C@H]1C(=NNC(N)=O)CC[C@H]4[C@@H](C2)N(C)CC[C@]314 [Dihydrocodeinone-semicarbazone.HCl, dihydrocodeinone-semicarbazone]
ED50 [2, 10]: 0.35 mg/kg
ED500 % (dose increasing narcosis to five times the control) [3, 11]: 1,0 mg/kg
ED100 [4]: 10 mg/kg
ED50 [5, 12]: 0.38 mg/kg
hot plate (rat) ED50 ([5]; rat): 0,38 mg/kg

CN1CC[C@]23c4c5ccc(O)c4O[C@H]2C(=NNc2ccccc2)CC[C@@]3(O)[C@H]1C5 [oxymorphone phenylhydrazone]
Ki [1]: 20 nM

COc1ccc2c3c1O[C@H]1C(=NNC(N)=S)CC[C@@]4(O)[C@@H](C2)N(C)CC[C@]314 [Oxycodone-thiosemicarbazone.HCl, Oxycodone-thiosemicarbazone]
ED50 [2, 10]: 4.5 mg/kg
ED100 [4]: 100 mg/kg
ED50 [5, 12]: 8.5 mg/kg

CN1CC[C@]23c4c5ccc(O)c4O[C@H]2C(=NN)CC[C@H]3[C@H]1C5 [dihydromorphinone hydrazone]
Ki [1]: 6 nM

COc1ccc2c3c1O[C@H]1C(=O)CC[C@H]4[C@@H](C2)N(C)CC[C@]314 [Dihydrocodeinone, reference compound]
ED50 [6, 13]: 0.9 mg/kg
ED50 [2, 10]: 0.98 mg/kg
ED500 % (dose increasing narcosis to five times the control) [3, 11]: 1,9 mg/kg
ED100 [4]: 4.9 mg/kg
respiration effect ([7]; 10-5500 μg/kg i.v., s.c.): depression
respiration frequency/min. ([7]; 10-5500 μg/kg i.v., s.c.): .dwnarw.
respiration volume ([7]; 10-5500 μg/kg i.v., s.c.): .dwnarw.
influence on the respiratory depression effect of morphine (in words) ([7]; rabbit, in vivo): unambiguously potentiate the respiratory depression effect of morphine
respiratory depression by the compound alone (in words) ([7]; rabbit, in vivo, sc): cause respiratory depression
ED50 [5, 12]: 2.2 mg/kg

CN1CC[C@]23c4c5ccc(O)c4O[C@H]2C(=NN)CC[C@@]3(O)[C@H]1C5 [oxymorphone hydrazone]
Ki [1]: 2 nM

COc1ccc2c3c1O[C@H]1C(=NO)CC[C@H]4[C@@H](C2)N(C)CC[C@]314 [Dihydrocodeinone-oxime, DIHYDROCODEINON-OXIME]
ED50 [6, 13]: 0.38 mg/kg
ED50 [2, 10]: 3.7 mg/kg
ED100 [4]: 25 mg/kg
Ki [1]: 52 nM
Ki [8]: 53 nM
ED50 [5, 12]: 4.2 mg/kg

COc1ccc2c3c1O[C@H]1C(=NO)CC[C@@]4(O)[C@@H](C2)N(C)CC[C@]314 [Oxycodone-oxime, 14-HYDROXY-DIHYDROCODEINONE-OXIME]
ED50 [6, 14]: 0.11 mg/kg
ED50 [2, 15]: 1 mg/kg
ED500 % (dose increasing narcosis to five times the control) ([3]; rat, in vivo): 0,5 mg/kg
potentiation of Inactine narcosis (in words) ([3]; rat, in vivo): most effectively prolongated
resp. change ampl. ([9]; OX 0.005 mg/kg s.c., 30 min): +30
resp. change fr/min ([9]; OX 0.005 mg/kg s.c., 30 min): +30
resp. change ampl. ([9]; OX 0.025 mg/kg s.c., 30 min): 0
resp. change fr/min ([9]; OX 0.025 mg/kg s.c., 30 min): +28
resp. change ampl. ([9]; OX 0.1 mg/kg s.c., 30 min): +40
resp. change fr/min ([9]; OX 0.1 mg/kg s.c., 30 min): +47
resp. change ampl. [9, 16]: +50
resp. change fr/min [9, 16]: +50
resp. change ampl. [9, 17]: -50
resp. change fr/min [9, 17]: -50
respiration number (in words) [9]: considerably increase the respiration number
resp. change ampl. [9, 18]: 0
resp. change fr/min [9, 18]: +71
resp. change ampl. [9, 19]: -40
resp. change fr/min [9, 19]: -29
resp. change ampl. [9, 20]: +20
resp. change fr/min [9, 20]: +57
ED100 [4]: 10 mg/kg
Ki [1]: 32 nM
Ki [8]: 32 nM
ED50 [5, 21]: 1.8 mg/kg

COc1ccc2c3c1O[C@H]1C(=NNc4ccccc4)CC[C@H]4[C@@H](C2)N(C)CC[C@]314 [Dihydrocodeinone-phenylhydrazone]
ED50 [2, 10]: 2.3 mg/kg
ED500 % (dose increasing narcosis to five times the control) [3, 11]: 3,5 mg/kg
resp. change ampl. [9, 22]: 0
resp. change fr/min [9, 22]: +85
resp. change ampl. [9, 23]: 0
resp. change fr/min [9, 23]: +96
resp. change ampl. [9, 24]: 0
resp. change fr/min [9, 24]: +114
resp. change ampl. [9, 25]: 0
resp. change fr/min [9, 25]: +114
resp. change ampl. [9, 26]: 0
resp. change fr/min [9, 26]: +132
resp. change ampl. [9, 27]: 0
resp. change fr/min [9, 27]: +39
resp. change ampl. [9, 28]: 0
resp. change fr/min [9, 28]: +19
resp. change ampl. [9, 29]: 0
resp. change fr/min [9, 29]: -3
resp. change ampl. [9, 30]: 0
resp. change fr/min [9, 30]: -4
ED100 [4]: 10.1 mg/kg
Ki [1]: 323 nM
Ki [8]: 323 nM
ED50 [5, 12]: 2.4 mg/kg

COc1ccc2c3c1O[C@H]1C(=NNC(N)=S)CC[C@H]4[C@@H](C2)N(C)CC[C@]314 [Dihydrocodeinone thio-semicarbazone.HCl, Dihydrocodeinone thio-semicarbazone]
ED50 [2, 10]: 0.6 mg/kg
ED100 [4]: 5 mg/kg
ED50 [5, 12]: 1.7 mg/kg

COc1ccc2c3c1O[C@H]1C(=NNC(N)=O)CC[C@@]4(O)[C@@H](C2)N(C)CC[C@]314 [Oxycodone-semicarbazone, 14-OH-DIHYDROCODEINONE-SEMICARBAZONE (TRANS)]
ED50 [6, 14]: 0.15 mg/kg
ED50 [2, 15]: 0.35 mg/kg
ED500 % (dose increasing narcosis to five times the control) ([3]; rat, in vivo): 1,5 mg/kg
resp. change ampl. ([9]; OS 0.01 mg/kg s.c., 10 min): 0
resp. change fr/min ([9]; OS 0.01 mg/kg s.c., 10 min): +48
resp. change ampl. ([9]; OS 0.01 mg/kg s.c., 30 min): +20
resp. change fr/min ([9]; OS 0.01 mg/kg s.c., 30 min): +51
resp. change ampl. [9, 31]: -16
resp. change fr/min [9, 31]: +24
resp. change ampl. [9, 32]: -20
resp. change fr/min [9, 32]: +13
resp. change ampl. [9, 33]: +20
resp. change fr/min [9, 33]: +48
resp. change ampl. ([9]; OS 0.025 mg/kg s.c., 30 min): +20
resp. change fr/min ([9]; OS 0.025 mg/kg s.c., 30 min): +51
resp. change ampl. ([9]; OS 0.05 mg/kg s.c., 10 min): +75
resp. change fr/min ([9]; OS 0.05 mg/kg s.c., 10 min): +50
resp. change ampl. [9, 34]: 0
resp. change fr/min [9, 34]: +10
resp. change ampl. ([9]; OS 0.50 mg/kg s.c., 10 min): 0
resp. change fr/min ([9]; OS 0.50 mg/kg s.c., 10 min): +36
respiration number (in words) [9]: considerably increase the respiration number
ED100 [4]: 5 mg/kg
Ki [1]: 588 nM
Ki [8]: 588 nM
respiration effect (printed over two lines: morphine-inhibition) ([7]; rabbit, in vivo): inhibition
respiration frequency/min. ([7]; rabbit, in vivo): .uparw.
respiration volume ([7]; rabbit, in vivo): .uparw..dwnarw.
ED50 [5, 21]: 0.58 mg/kg

CN1CC[C@]23c4c5ccc(O)c4O[C@H]2C(=NNC(N)=O)CC[C@H]3[C@H]1C5 [dihydromorphinone semicarbazone]
Ki [1]: 3 nM
